biological target: human EP4 receptor (Homo sapiens (Human), UniProt P35408); test: EP4 antagonistic activity measurement experiment using prostanoid receptor subtype expressing cells; type: cell-based; details: CHO cells expressing human EP4 receptor; inhibition of cAMP production by PGE2 10 nM; 30 minutes at room temperature
Procedure: CHO cells expressing human EP4 receptor subtypes were prepared according to the methods of Nishigaki et al. (Non-Patent Literature 4), and used for experiment. Cells cultured to subconfluent were detached, and suspended in an assay medium (MEM containing 1 mmol/L IBMX, 1% HSA) such that a concentration became 1×10^6 cells/mL. For reaction, PGE2 was added to the cell suspension (25 μL) in a final concentration of 10 nmol/L, either alone or as a 25-μL PGE2 solution containing the test compound. After 30 minutes of reaction at room temperature, the amount of cAMP in the cells was quantified according to the method in the descriptions of the cAMP assay kit (CISBIO).
Note here that the antagonistic effect (IC50 value) of the test compound was calculated as a value that represents an inhibition rate against a reaction with PGE2 alone at 10 nM, a concentration that produces a submaximal cAMP producing effect.

Sequence of human EP4 receptor (P35408 whole entry): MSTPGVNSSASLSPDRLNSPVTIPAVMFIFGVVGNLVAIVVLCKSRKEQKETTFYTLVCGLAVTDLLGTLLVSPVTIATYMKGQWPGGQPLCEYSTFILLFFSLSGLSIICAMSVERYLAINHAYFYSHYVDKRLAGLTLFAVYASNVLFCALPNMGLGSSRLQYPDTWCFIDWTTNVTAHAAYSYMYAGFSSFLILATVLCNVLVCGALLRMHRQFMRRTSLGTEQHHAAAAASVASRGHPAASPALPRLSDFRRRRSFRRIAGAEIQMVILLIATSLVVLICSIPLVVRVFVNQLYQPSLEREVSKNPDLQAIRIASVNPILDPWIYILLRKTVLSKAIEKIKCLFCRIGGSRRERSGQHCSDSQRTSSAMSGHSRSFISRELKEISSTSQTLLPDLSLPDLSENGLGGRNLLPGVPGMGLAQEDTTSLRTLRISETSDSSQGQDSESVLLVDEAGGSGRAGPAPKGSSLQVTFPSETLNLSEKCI

How did the IC50 turn out when CNC(=O)c1ccc2c(C)cn(C(C)C(=O)Nc3cc(Cn4cc(C)c(C)n4)ccc3CCCC(=O)O)c2c1 (single isomer, unassigned) [Example 2-6(2), 4-{4-[(3,4-dimethyl-1H-pyrazol-1-yl)methyl]-2-({2-[3-methyl-6-(methylcarbamoyl)-1H-indol-1-yl]propanoyl}amino)phenyl}butanoic acid] was run?
Its IC50 is 1.2 nM.

With CNC(=O)c1ccc2c(C)cn(C(C)C(=O)Nc3cc(Cn4nc(C)cc4C(F)(F)F)ccc3CCCC(=O)O)c2c1 (single isomer, unassigned) [Example 2-27(4), 4-[2-({2-[3-methyl-6-(methylcarbamoyl)-1H-indol-1-yl]propanoyl}amino)-4-{[3-methyl-5-(trifluoromethyl)-1H-pyrazol-1-yl]methyl}phenyl]butanoic acid] as the compound, how does the IC50 read?
Its IC50 is 1.8 nM.

CCNC(=O)c1ccc2c(C)cn(C(C)C(=O)Nc3cc(Cn4cc(C)cn4)ccc3CCCC(=O)O)c2c1 (single isomer, unassigned) [Example 3-3(2), 4-{2-({2-[6-(ethylcarbamoyl)-3-methyl-1H-indol-1-yl]propanoyl}amino)-4-[(4-methyl-1H-pyrazol-1-yl)methyl]phenyl}butanoic acid] was tested. Which IC50 did it give?
The IC50 was 0.9 nM.

How did the IC50 turn out when CCCNC(=O)c1ccc2c(C)cn(C(C)C(=O)Nc3cc(Cn4cc(C)cn4)ccc3CCCC(=O)O)c2c1 (single isomer, unassigned) [Example 3-5(2), 4-{2-({2-[3-methyl-6-(propylcarbamoyl)-1H-indol-1-yl]propanoyl}amino)-4-[(4-methyl-1H-pyrazol-1-yl)methyl]phenyl}butanoic acid] was run?
The IC50 was 2.1 nM.

For Cc1cnn(Cc2ccc(CCCC(=O)O)c(NC(=O)C(C)n3cc(C)c4ccc(C(=O)NC(C)C)cc43)c2)c1 (single isomer, unassigned) [Example 3-7(2), 4-{2-({2-[6-(isopropylcarbamoyl)-3-methyl-1H-indol-1-yl]propanoyl}amino)-4-[(4-methyl-1H-pyrazol-1-yl)methyl]phenyl}butanoic acid], which IC50 is on record?
Its IC50 is 1.7 nM.

How did the IC50 turn out when Cc1cnn(Cc2ccc(CCCC(=O)O)c(NC(=O)C(C)n3cc(C)c4ccc(C(=O)N(C)C)cc43)c2)c1 (single isomer, unassigned) [Example 3-11(2), 4-{2-({2-[6-(dimethylcarbamoyl)-3-methyl-1H-indol-1-yl]propanoyl}amino)-4-[(4-methyl-1H-pyrazol-1-yl)methyl]phenyl}butanoic acid] was run?
Its IC50 is 4.6 nM.

How did the IC50 turn out when Cc1cnn(Cc2ccc(CCCC(=O)O)c(NC(=O)C(C)n3cc(C)c4ccc(C(=O)NCC5CC5)cc43)c2)c1 (single isomer, unassigned) [Example 3-20(2), 4-{2-[(2-{6-[(cyclopropylmethyl)carbamoyl]-3-methyl-1H-indol-1-yl}propanoyl)amino]-4-[(4-methyl-1H-pyrazol-1-yl)methyl]phenyl}butanoic acid] was run?
Its IC50 is 1.4 nM.

With CNC(=O)c1ccc2c(C)cn(C(C)C(=O)Nc3cc(Cn4cnc(C5CC5)n4)ccc3CCCC(=O)O)c2c1 (single isomer, unassigned) [Example 4-1(2), 4-{4-[(3-cyclopropyl-1H-1,2,4-triazol-1-yl)methyl]-2-({2-[3-methyl-6-(methylcarbamoyl)-1H-indol-1-yl]propanoyl}amino)phenyl}butanoic acid] as the compound, how does the IC50 read?
The IC50 was 2.5 nM.

How did the IC50 turn out when CNC(=O)c1ccc2c(C)cn(C(C)C(=O)Nc3cc(Cn4cc(F)cn4)ccc3CCCC(=O)O)c2c1 (single isomer, unassigned) [Example 4-8(2), 4-{4-[(4-fluoro-1H-pyrazol-1-yl)methyl]-2-({2-[3-methyl-6-(methylcarbamoyl)-1H-indol-1-yl]propanoyl}amino)phenyl}butanoic acid] was run?
Its IC50 is 2.7 nM.

How did the IC50 turn out when CNC(=O)c1ccc2c(C)cn(C(C)C(=O)Nc3cc(Cn4cc(C(C)C)nn4)ccc3CCCC(=O)O)c2c1 (single isomer, unassigned) [Example 6-5(1), 4-{4-[(4-isopropyl-1H-1,2,3-triazol-1-yl)methyl]-2-({2-[3-methyl-6-(methylcarbamoyl)-1H-indol-1-yl]propanoyl}amino)phenyl}butanoic acid] was run?
Its IC50 is 2.7 nM.

COCCNC(=O)c1ccc2c(C)cn(C(C)C(=O)Nc3cc(Cn4cnc(C(F)(F)F)n4)ccc3CCCC(=O)O)c2c1 (single isomer, unassigned) [Example 7-1(2), 4-(2-[(2-{6-[(2-methoxyethyl)carbamoyl]-3-methyl-1H-indol-1-yl}propanoyl)amino]-4-{[3-(trifluoromethyl)-1H-1,2,4-triazol-1-yl]methyl}phenyl)butanoic acid] was tested. Which IC50 did it give?
Its IC50 is 3.3 nM.

How did the IC50 turn out when CNC(=O)c1ccc2c(C)cn(C(C)C(=O)Nc3cc(Cn4cnc(C(F)(F)F)n4)ccc3CCCC(=O)O)c2c1 (single isomer, unassigned) [Example 7-3(2), 4-[2-({2-[3-methyl-6-(methylcarbamoyl)-1H-indol-1-yl]propanoyl}amino)-4-{[3-(trifluoromethyl)-1H-1,2,4-triazol-1-yl]methyl}phenyl]butanoic acid] was run?
The IC50 was 1.5 nM.

With Cc1cnn(Cc2ccc(CCCC(=O)O)c(NC(=O)C(C)n3cc(C)c4cc(C(=O)NC(C)C)ccc43)c2)c1 (single isomer, unassigned) [Example 8-9(2), 4-{2-({2-[5-(isopropylcarbamoyl)-3-methyl-1H-indol-1-yl]propanoyl}amino)-4-[(4-methyl-1H-pyrazol-1-yl)methyl]phenyl}butanoic acid] as the compound, how does the IC50 read?
The IC50 was 3.3 nM.

Cc1cnn(Cc2ccc(CCCC(=O)O)c(NC(=O)C(C)n3cc(C)c4cc(C(=O)N5CCCC5)ccc43)c2)c1 (single isomer, unassigned) [Example 8-17(2), 4-{4-[(4-methyl-1H-pyrazol-1-yl)methyl]-2-({2-[3-methyl-5-(1-pyrrolidinylcarbonyl)-1H-indol-1-yl]propanoyl}amino)phenyl}butanoic acid] was tested. Which IC50 did it give?
Its IC50 is 8.6 nM.

How did the IC50 turn out when CNC(=O)c1ccc2c(C3CC3)cn(C(C)C(=O)Nc3cc(Cn4cc(C)cn4)ccc3CCCC(=O)O)c2c1 (single isomer, unassigned) [Example 9-1(2), 4-{2-({2-[3-cyclopropyl-6-(methylcarbamoyl)-1H-indol-1-yl]propanoyl}amino)-4-[(4-methyl-1H-pyrazol-1-yl)methyl]phenyl}butanoic acid] was run?
Its IC50 is 4.6 nM.

COCCNC(=O)c1ccc2c(C3CC3)cn(C(C)C(=O)Nc3cc(Cn4cc(C)cn4)ccc3CCCC(=O)O)c2c1 (single isomer, unassigned) [Example 9-5(2), 4-{2-[(2-{3-cyclopropyl-6-[(2-methoxyethyl)carbamoyl]-1H-indol-1-yl}propanoyl)amino]-4-[(4-methyl-1H-pyrazol-1-yl)methyl]phenyl}butanoic acid] was tested. Which IC50 did it give?
The IC50 was 2.2 nM.

COCCNC(=O)c1ccc2ccn(C(C)C(=O)Nc3cc(C#N)ccc3CCCC(=O)O)c2c1 (single isomer, unassigned) [Example 10-1(2), 4-{4-cyano-2-[(2-{6-[(2-methoxyethyl)carbamoyl]-1H-indol-1-yl}propanoyl)amino]phenyl}butanoic acid] was tested. Which IC50 did it give?
The IC50 was 3.7 nM.

With CNC(=O)c1ccc2c(C)cn(C(C)C(=O)Nc3cc(C#N)ccc3CCCC(=O)O)c2c1 (single isomer, unassigned) [Example 11-3(2), 4-[4-cyano-2-({2-[3-methyl-6-(methylcarbamoyl)-1H-indol-1-yl]propanoyl}amino)phenyl]butanoic acid] as the compound, how does the IC50 read?
The IC50 was 2.7 nM.

Which IC50 does the source give for Cc1cn(C(C)C(=O)Nc2cc(C#N)ccc2CCCC(=O)O)c2cc(C(=O)NC(C)(C)C)ccc12 (single isomer, unassigned) [Example 11-7(2), 4-{4-cyano-2-[(2-{3-methyl-6-[(2-methyl-2-propanyl)carbamoyl]-1H-indol-1-yl}propanoyl)amino]phenyl}butanoic acid] here?
Its IC50 is 1.6 nM.

For Cc1cn(C(C)C(=O)Nc2cc(C#N)ccc2CCCC(=O)O)c2cc(C(=O)NC3CCCC3)ccc12 (single isomer, unassigned) [Example 11-11(2), 4-[4-cyano-2-({2-[6-(cyclopentylcarbamoyl)-3-methyl-1H-indol-1-yl]propanoyl}amino)phenyl]butanoic acid], which IC50 is on record?
The IC50 was 2 nM.

Which IC50 does the source give for CNC(=O)c1ccc2c(C3CC3)cn(C(C)C(=O)Nc3cc(C#N)ccc3CCCC(=O)O)c2c1 (single isomer, unassigned) [Example 11-23(2), 4-[4-cyano-2-({2-[3-cyclopropyl-6-(methylcarbamoyl)-1H-indol-1-yl]propanoyl}amino)phenyl]butanoic acid] here?
The IC50 was 6.5 nM.

For COCCNC(=O)c1ccc2c(C3CC3)cn(C(C)C(=O)Nc3cc(C#N)ccc3CCCC(=O)O)c2c1 (single isomer, unassigned) [Example 11-25(2), 4-{4-cyano-2-[(2-{3-cyclopropyl-6-[(2-methoxyethyl)carbamoyl]-1H-indol-1-yl}propanoyl)amino]phenyl}butanoic acid], which IC50 is on record?
Its IC50 is 0.57 nM.

With COCCNC(=O)c1ccc2c(C)cn(C(C)C(=O)Nc3cc(F)ccc3CCCC(=O)O)c2c1 (single isomer, unassigned) [Example 11-30(2), 4-{4-fluoro-2-[(2-{6-[(2-methoxyethyl)carbamoyl]-3-methyl-1H-indol-1-yl}propanoyl)amino]phenyl}butanoic acid] as the compound, how does the IC50 read?
The IC50 was 12 nM.

For CNC(=O)c1ccc2c(C)cn(C(C)C(=O)Nc3cc(Cn4cc(C)cn4)ccc3CCCC(=O)O)c2c1 (single isomer, unassigned) [Example 12-1(2), 4-{2-({2-[3-methyl-6-(methylcarbamoyl)-1H-indol-1-yl]propanoyl}amino)-4-[(4-methyl-1H-pyrazol-1-yl)methyl]phenyl}butanoic acid], which IC50 is on record?
The IC50 was 1.6 nM.

How did the IC50 turn out when CNC(=O)c1ccc2c(C)cn(C(C)C(=O)Nc3cc(-c4nnc(C)o4)ccc3CCCC(=O)O)c2c1 (single isomer, unassigned) [Example 15-1(2), 4-[2-({2-[3-methyl-6-(methylcarbamoyl)-1H-indol-1-yl]propanoyl}amino)-4-(5-methyl-1,3,4-oxadiazol-2-yl)phenyl]butanoic acid] was run?
The IC50 was 6.4 nM.
